# Read-outs that look alike come from different tables or passages of the source.
# Assays:
# Format in all cases: physicochemical
# [1] = Approximate solvent solubility (ASS); settings: for solubility: organic solvents and solvent systems, 40 °C, organic solvent or mixture, thermodynamic from solid, stirring at 40 °C
# Procedure: The approximate solubility of both compounds was determined in various organic solvents and solvent systems with a range of properties, including protic, aprotic, polar, and nonpolar solvents. Solubility tests were conducted under stirring at 40 °C, with concentrations ranging from 400 to 5 mg/mL. Solvents in which the solubility was below 5 mg/mL were classified as antisolvents. […]
# Experimental procedures ACBI1:
# Approximate solvent solubility (ASS):
# Approximately 20.00 mg were weighed in HPLC vials, and a magnetic stirrer bar was inserted. Water bath temperature was set at 40 °C, and the initial 25 μL of the appropriate solvent was added into the vial. Stirring was initiated and the slurries were brought up to the desired set temperature. Observations were recorded and the next addition was performed according to the Table S1. The samples were stirred at 40 °C overnight, cooled down to ambient conditions and observations were recorded after 24 h.
# [2] = Variable temperature NMR rotational barrier calculation (modified Eyring equation); settings: for rotational energy barrier size: conclusion of NMR experiments
# Procedure: This equation allows quick evaluation of the rotational energy barrier as follows: ΔG^‡=RTcoal[22.96+ln(Tcoal/δν)] where R is the universal gas constant [J/mol·K], T coal is the coalescence temperature [K], and δν is the difference of the Larmor frequencies in [Hz] for the two observed signals for the rotameric pair. The energy calculated using this equation is given in J/mol, which is then converted into kcal/mol.
# ^1H NMR spectra were recorded in a suitable deuterated solvent using a Bruker Avance IIIHD NMR spectrometer with a working base frequency of 400 MHz, equipped with a helium cryogenically cooled ^1H/^13C /^15N TCI probehead. The temperature limits of the probehead are from −40 °C up to 150 °C. The ^1H NMR experiments are recorded at a proton resonance frequency of 400.13 MHz, and 100.61 MHz was used for the ^13C frequency. The temperature is regulated using a Bruker Smart Variable temperature unit and calibrated using NMR-thermometer sample calibration. The assignment of the proton and carbon signals is performed using ^1H and ^13C NMR experiments, such as 1D ^1H, 1D ^13C, and 2D experiments: ^1H–^1H COSY, ^1H–^1H ROESY, ^1H–^13C HSQC, and ^1H–^13C HMBC. The chemical shifts (δH and δC) are reported in parts per million referenced to the 0.01% of nondeuterated signal of the deuterated solvent in the proton-based experiments and to the signal of the fully deuterated solvent signal in the carbon dimensions.
# The evaluation of the energy barrier for the single bond rotation by experiment serves as key information for the crystallization properties of the bRo5-like molecules. Single one-dimensional proton measurements at various temperatures in 10 K steps allow the assessment of the coalescence temperature and the calculation of the rotational barrier energy, as described below. Both model compounds, ACBI1 and BI201335, show a clearly observable doubled signal set for some of the signals in the NMR spectra at 303 K. This could be attributed to presence of rotamers and/or diastereoisomers, as shown in Figure and Figure for ACBI1 and Figure and Figure for BI201335. The discernment of whether the multiple of signal sets is observed due to a slow convergence between two or more forms or the presence of diastereoisomers is most easily accessed by performing a two-dimensional proton ROESY experiment. […] At this temperature, the exchange between the proton signals could be clearly observed by the presence of cross peaks with the same phase as the diagonal peaks. The Nuclear Overhauser Enhancement (NOE) proximity cross peaks for small molecules have an antidiagonal phase. This serves as proof for the presence of rotamers with rotational barrier that could not be overcome at 303 K and therefore no exchange cross peaks are measured. […] In contrast to the ACBI1, in the ROESY spectrum at 303 K for BI201335 the exchange cross peaks are measurable.
# The variable temperature NMR experiments were performed in the temperature range from 303 to 393 K with a 10 K step in between the experiments. In the case of BI201335 there are two rotameric signal pairs for which an attempt to calculate the rotational barrier could be performed. […] An estimation of the potential rotational barrier nevertheless allows an approximation within a range of energy barriers to be calculated: if the coalescence temperature was 393 K, the rotational barrier for this signal pair would be 18.8 kcal/mol. […] At the last measured point of 393 K (clearly below the experimental coalescence temperature), the rotational barrier would be 19.4 kcal/mol. At 423 K the calculated energy barrier would be 20.9 kcal/mol, and at 453 K it would be 22.4 kcal/mol. Based on the lack of exchange signals in the ROESY spectra at lower temperatures and the shape of the signals at 393 K, a coalescence temperature around 450 K seems most plausible. Thus, the rotational barrier for ACBI1 is estimated as 22.4 kcal/mol, with an error range of about 1–1.5 kcal/mol.
# [3] = Dynamical vapor sorption (DVS); settings: crystalline solvent-free form; 0-90% RH
# Procedure: Dynamical vapor sorption data were recorded on a DVS intrinsic system from surface measurement systems (SMS) under a N2 atmosphere. Water sorption/desorption isotherms were recorded from 0% to 90% RH followed by an additional run from 90% to 0% RH in equal steps of 10% RH.
# [4] = solvents in which the compound was soluble, read-out: approximate solubility in organic solvents
hydrophobicity ([1]; from solvent solubility test (Table S1)),"solubility ([1]; a few solvents classified as potential antisolvents, read-out: approximate solubility in antisolvents) [mg/mL]","solubility [1, 4] [mg/mL]","rotational barrier ([2]; calculated for 393 K, clearly below the coalescence temperature) [kcal/mol]",calculated energy barrier ([2]; calculated for 423 K) [kcal/mol],calculated energy barrier ([2]; calculated for 453 K) [kcal/mol],rotational energy barrier size [2],rotational barrier (estimated) ([2]; error range of about 1–1.5 kcal/mol) [kcal/mol],"coalescence temperature (most plausible) ([2]; not reached at 393 K, estimated from signal shape and ROESY)",coalescence temperature ([2]; signal pair 4.46 and 4.76 ppm at 303 K) [K],"rotational barrier ([2]; signal pair 4.46 and 4.76 ppm, coalescence temperature 393 K) [kcal/mol]","rotational energy barrier ([2]; signal pair 4.62 and 4.95 ppm, estimated coalescence temperature 403 K) [kcal/mol]","rotational barrier ([2]; signal pair 4.62 and 4.95 ppm, if the coalescence temperature was 393 K (not reached)) [kcal/mol]","coalescence temperature (estimated) ([2]; signal pair 4.62 and 4.95 ppm, not converged at 393 K)",hygroscopicity (DVS isotherm plot) [3],SMILES
hydrophobic,< 5,50 to 400,19.4,20.9,22.4,above 20 kcal/mol,22.4,around 450 K,,,,,,,Cc1ncsc1-c1ccc(CNC(=O)C2CC(O)CN2C(=O)C(NC(=O)C2(F)CC2)C(C)(C)C)c(OCCOc2ccc(CN3CCN(c4cc(-c5ccccc5O)nnc4N)CC3)cc2)c1 (centres unmarked) [ACBI1]
,,75 to 400,,,,below 20 kcal/mol,,,393,18.9,19.3,18.8,around 403 K,slight hygroscopicity,C=C[C@@H]1C[C@]1(NC(=O)[C@@H]1C[C@@H](Oc2cc(-c3csc(NC(=O)C(C)C)n3)nc3c(Br)c(OC)ccc23)CN1C(=O)[C@@H](NC(=O)OC1CCCC1)C(C)(C)C)C(=O)O [BI201335]

# — PMC12135943, “Beyond Barriers, Big Crystallization Hurdles: Atropisomerism in Beyond Rule of Five Compounds Explored by Computational and NMR Studies” (Molecular Pharmaceutics, 2025)
